# In US8796268B2, “Heteroaryls and uses thereof” (Millennium Pharmaceuticals, Inc., priority 2010, dated 2014):
# Counter-ions that a name gives are not always drawn.
# Key:
# Type in all cases: biochemical
# [1] = target: T1, Human VPS34 (Homo sapiens, UniProt Q8NEB9); assay: Human VPS34 enzyme assay (Adapta Universal Kinase Assay); conditions: at a 1.0 μM concentration; read-out: VPS34 Percent Inhibition
# T1 construct: GST (with thrombin site, pDEST20-Thrombin) (N); host or cells: SF9 insect cells (baculovirus)
# T1 sequence (Q8NEB9 whole entry): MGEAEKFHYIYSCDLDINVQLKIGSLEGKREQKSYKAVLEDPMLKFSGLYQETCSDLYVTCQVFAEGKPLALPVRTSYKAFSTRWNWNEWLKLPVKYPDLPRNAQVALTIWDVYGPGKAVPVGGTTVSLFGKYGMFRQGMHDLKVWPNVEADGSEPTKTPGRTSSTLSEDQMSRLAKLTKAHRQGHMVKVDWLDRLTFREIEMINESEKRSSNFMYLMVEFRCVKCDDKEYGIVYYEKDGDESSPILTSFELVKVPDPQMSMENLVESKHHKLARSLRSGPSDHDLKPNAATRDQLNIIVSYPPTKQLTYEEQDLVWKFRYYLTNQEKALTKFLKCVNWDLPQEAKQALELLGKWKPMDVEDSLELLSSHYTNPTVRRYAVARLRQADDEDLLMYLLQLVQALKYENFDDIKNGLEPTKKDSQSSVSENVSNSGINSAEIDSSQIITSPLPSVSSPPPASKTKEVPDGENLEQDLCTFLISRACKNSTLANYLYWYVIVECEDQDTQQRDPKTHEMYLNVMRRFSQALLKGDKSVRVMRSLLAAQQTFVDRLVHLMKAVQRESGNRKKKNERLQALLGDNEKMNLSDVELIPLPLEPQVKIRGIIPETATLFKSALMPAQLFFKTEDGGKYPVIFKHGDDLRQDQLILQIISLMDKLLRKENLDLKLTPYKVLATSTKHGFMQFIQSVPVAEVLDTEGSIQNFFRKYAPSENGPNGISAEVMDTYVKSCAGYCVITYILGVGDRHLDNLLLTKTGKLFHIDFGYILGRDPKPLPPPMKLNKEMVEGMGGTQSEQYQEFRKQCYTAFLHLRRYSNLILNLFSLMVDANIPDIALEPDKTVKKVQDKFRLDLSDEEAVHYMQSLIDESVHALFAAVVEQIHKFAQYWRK
# Text: The catalytic subunits of PI3Ks are cloned into either pDEST8(p110 alpha) or pDEST10(p110beta, p110delta, and p110gamma) as N-terminal His tagged fusion proteins using the Gateway system (Invitrogen, catalog#11804-010 for pDEST8 and 11806-015 for pDEST10). The sequences are verified before recombinant protein expression using the Baculovirus Expression System with Gateway® Technology. The accession numbers for the subunits are as follows: • p110 alpha (GB:U79143) • p110beta (GB: S67334) • p110delta (GB: U86453) • p110gamma (GB: X83368) • The regulatory subunits of PI3Ks are cloned into pDEST8 as un-tagged protein using the Gateway system (Catalog#11804-010). The sequences are verified before recombinant protein expression using the Baculovirus Expression System with Gateway® Technology. The accession numbers for the subunits are as following: • p85 alpha (GB: BC030815) • p101(GB: AB028925) • VPS34 (accession number GB:BC033004) is cloned into pDEST20—Thombin as N-terminal GST tagged fusion proteins using the Gateway system (Invitrogen, catalog#11804-013). The sequences are verified before recombinant protein expression using the Baculovirus Expression System with Gateway® Technology.
# For expression VPS34 was infected at 1MOI in SF9 cells and harvested 72 hours post infection.
# For purification, VPS34 is purified by Glutathione Sepharose 4 Fast Flow (GE Healthcare #17-5132-03) followed by HiTrap Q (GE Healthcare #17-1153-01).
# 3) VPS34 is assayed using Adapta™ Universal Kinase Assay Kit (Invitrogen).
# 4) Human VPS34 enzyme assay method
# 100 nL compounds in DMSO are added to wells of a 384 well microtitre plate (Greiner 780076). At room temperature: 5 ul VPS34 reaction buffer (Invitrogen Assay Buffer Q (diluted 1 in 5 with nanopure water) plus 2 mM DTT and 2 mM MnCl2) containing ATP (20 uM, Promega) and 200 uM PI—PS substrate (Invitrogen PV5122) is added followed immediately by 5 ul VPS34 reaction buffer (as above) containing VPS34 (5 nM, Millennium Protein Sciences Group) and the mixture is incubated with shaking at room temperature for 1 hour. Then 5 ul VPS34 stop-detect mix (as per Invitrogen Adapta Assay kit (PV5009) instructions (contains kinase quench buffer, TR-FRET buffer, Adapta Eu anti-ADP antibody and Alexa Fluor 647 ADP tracer)) is added to quench the reaction. The plates are then incubated for 30 minutes at room temperature with shaking and then read on a BMG PheraStar Plus reader.
# For the assay methods described above, test compound percent inhibition, at various concentrations, is calculated relative to control (DMSO and EDTA) treated samples. Compound concentration versus percent inhibition curves are fitted to generate IC50 values. One skilled in the art will appreciate that the values generated either as percentage inhibition at a single concentration or IC50 values are subject to experimental variation.
# [2] = target: T2, Human PI3K delta (Homo sapiens, UniProt O00329); assay: Human PI3K delta enzyme assay (HTRF); conditions: at a 1.0 μM concentration; read-out: PI3Kδ Percent Inhibition
# T2 construct: His (N); host or cells: SF9 insect cells (baculovirus)
# T2 sequence (O00329 whole entry): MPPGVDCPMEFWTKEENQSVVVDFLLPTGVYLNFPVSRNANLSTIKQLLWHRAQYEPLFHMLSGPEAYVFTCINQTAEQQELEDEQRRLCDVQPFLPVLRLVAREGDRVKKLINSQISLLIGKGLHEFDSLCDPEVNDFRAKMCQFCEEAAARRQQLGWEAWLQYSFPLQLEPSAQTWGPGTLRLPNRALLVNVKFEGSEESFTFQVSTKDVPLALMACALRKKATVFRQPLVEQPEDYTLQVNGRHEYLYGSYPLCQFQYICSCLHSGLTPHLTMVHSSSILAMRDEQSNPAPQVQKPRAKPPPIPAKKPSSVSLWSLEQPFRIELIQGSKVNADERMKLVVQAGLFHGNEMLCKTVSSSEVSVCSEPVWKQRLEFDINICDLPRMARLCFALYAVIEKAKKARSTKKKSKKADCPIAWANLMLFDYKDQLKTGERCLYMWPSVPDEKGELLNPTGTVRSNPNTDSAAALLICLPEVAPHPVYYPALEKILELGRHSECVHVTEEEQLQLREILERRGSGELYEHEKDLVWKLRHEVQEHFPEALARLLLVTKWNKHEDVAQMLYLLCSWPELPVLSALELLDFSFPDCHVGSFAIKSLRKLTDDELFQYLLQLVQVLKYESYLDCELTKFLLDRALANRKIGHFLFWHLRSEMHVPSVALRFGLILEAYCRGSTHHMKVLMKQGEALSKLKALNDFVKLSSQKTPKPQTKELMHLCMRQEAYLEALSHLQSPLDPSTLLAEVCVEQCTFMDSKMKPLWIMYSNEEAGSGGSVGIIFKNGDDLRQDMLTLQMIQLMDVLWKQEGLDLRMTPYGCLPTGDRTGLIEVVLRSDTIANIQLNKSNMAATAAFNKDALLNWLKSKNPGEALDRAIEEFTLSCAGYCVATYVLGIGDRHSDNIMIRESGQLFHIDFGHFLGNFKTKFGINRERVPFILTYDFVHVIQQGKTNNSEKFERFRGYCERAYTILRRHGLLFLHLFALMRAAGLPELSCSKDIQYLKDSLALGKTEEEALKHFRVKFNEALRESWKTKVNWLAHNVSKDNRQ
# T2 sequence (P27986 whole entry partner): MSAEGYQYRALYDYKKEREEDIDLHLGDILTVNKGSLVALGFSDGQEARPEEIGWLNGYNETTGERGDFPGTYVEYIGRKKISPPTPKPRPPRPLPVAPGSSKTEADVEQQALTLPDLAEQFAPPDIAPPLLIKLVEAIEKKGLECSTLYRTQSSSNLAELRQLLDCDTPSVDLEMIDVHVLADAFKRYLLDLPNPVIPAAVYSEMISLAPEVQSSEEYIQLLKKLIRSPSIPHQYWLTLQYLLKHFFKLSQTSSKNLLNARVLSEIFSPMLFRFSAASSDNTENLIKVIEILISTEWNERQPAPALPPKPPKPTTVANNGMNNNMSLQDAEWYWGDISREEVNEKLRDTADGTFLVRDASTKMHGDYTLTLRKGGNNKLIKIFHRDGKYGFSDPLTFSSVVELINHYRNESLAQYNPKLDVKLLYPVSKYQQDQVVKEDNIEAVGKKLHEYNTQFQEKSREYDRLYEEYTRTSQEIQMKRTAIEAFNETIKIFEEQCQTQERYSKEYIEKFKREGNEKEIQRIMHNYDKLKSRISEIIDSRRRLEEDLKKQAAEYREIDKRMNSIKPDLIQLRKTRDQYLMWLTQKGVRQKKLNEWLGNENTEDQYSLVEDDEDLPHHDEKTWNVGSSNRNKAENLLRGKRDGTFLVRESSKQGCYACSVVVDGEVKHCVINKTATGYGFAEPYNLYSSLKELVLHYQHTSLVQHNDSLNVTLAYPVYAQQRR
# Summary of the method: (§1)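 Compounds were mixed with 25 uM ATP, then with 3.5 uM di-C8 PI(4,5)P2 and His-tagged PI3K isoform (β 5.25 nM, δ 0.75 nM, γ 5 nM) at pH 7.00. After 30 min at room temperature, EDTA stopped the reaction and PIP3 was measured by HTRF over 1 h.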
# [3] = target: T3, Human PI3K alpha (Homo sapiens, UniProt P42336); assay: Human PI3K alpha enzyme assay (HTRF); conditions: at a 1.1 μM concentration; read-out: PI3Kα Percent Inhibition
# T3 construct: His (N); host or cells: SF9 insect cells (baculovirus)
# T3 sequence (P42336 whole entry): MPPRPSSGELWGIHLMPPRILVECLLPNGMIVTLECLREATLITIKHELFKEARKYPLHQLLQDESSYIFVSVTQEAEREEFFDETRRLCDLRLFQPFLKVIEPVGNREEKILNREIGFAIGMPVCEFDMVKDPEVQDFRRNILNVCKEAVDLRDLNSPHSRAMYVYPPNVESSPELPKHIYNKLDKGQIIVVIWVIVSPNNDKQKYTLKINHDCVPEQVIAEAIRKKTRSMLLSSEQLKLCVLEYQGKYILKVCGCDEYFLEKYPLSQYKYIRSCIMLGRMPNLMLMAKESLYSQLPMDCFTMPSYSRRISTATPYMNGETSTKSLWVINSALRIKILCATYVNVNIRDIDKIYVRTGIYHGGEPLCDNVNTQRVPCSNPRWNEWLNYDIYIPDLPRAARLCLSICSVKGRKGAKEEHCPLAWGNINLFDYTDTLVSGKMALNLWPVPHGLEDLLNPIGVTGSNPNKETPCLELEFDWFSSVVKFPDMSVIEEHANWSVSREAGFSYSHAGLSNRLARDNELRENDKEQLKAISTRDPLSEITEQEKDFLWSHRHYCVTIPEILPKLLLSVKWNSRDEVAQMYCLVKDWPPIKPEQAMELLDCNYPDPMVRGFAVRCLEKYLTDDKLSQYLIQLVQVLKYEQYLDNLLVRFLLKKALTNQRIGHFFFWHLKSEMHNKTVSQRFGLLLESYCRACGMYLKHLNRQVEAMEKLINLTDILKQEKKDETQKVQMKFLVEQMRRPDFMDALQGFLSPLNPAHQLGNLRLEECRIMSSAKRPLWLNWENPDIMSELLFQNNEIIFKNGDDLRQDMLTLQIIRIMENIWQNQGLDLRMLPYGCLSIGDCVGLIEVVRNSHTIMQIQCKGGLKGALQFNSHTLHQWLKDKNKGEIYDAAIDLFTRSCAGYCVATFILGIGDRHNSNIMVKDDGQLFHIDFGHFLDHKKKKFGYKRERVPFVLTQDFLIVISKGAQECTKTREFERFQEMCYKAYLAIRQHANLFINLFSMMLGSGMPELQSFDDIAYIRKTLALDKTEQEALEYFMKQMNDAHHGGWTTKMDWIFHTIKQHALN
# T3 sequence (P27986 whole entry partner): as the sequence (P27986 whole entry partner) above
# [4] = target: T4, Human PI3K gamma (Homo sapiens, UniProt P48736); assay: Human PI3K gamma enzyme assay (HTRF); conditions: at a 1.0 μM concentration; read-out: PI3Kγ Percent Inhibition
# T4 construct: His (N); host or cells: SF9 insect cells (baculovirus)
# T4 sequence (P48736 whole entry): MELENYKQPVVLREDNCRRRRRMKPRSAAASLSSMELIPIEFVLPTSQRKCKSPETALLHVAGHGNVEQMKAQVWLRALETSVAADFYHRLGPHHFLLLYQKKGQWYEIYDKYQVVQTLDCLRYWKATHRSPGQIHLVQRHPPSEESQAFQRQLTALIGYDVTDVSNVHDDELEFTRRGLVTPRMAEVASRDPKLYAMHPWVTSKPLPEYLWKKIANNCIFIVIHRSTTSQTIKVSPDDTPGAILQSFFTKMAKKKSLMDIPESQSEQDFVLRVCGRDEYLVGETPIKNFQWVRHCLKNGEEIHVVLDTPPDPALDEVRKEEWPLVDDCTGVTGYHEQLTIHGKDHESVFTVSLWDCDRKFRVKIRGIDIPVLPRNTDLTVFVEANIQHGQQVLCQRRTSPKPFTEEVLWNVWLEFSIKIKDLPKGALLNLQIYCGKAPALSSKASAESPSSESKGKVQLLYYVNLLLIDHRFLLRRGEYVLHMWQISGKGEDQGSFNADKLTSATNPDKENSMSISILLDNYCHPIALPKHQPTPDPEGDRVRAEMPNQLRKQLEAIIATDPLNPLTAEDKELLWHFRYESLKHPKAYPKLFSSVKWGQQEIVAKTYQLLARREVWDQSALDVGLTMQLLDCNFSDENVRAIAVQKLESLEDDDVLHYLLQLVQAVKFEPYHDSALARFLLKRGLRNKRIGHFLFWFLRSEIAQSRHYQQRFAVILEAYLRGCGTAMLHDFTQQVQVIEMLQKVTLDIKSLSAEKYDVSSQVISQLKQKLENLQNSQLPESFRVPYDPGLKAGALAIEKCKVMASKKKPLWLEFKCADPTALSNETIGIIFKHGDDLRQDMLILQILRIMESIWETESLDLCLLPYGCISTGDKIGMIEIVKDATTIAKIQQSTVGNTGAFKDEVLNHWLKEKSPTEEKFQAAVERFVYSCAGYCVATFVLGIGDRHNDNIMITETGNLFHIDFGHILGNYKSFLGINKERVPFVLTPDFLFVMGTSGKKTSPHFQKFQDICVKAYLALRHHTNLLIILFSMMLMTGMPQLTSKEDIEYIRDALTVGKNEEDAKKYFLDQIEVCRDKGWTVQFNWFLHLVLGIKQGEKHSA
# Summary of the method: as §1
# [5] = target: T5, Human PI3K beta (Homo sapiens, UniProt P42338); assay: Human PI3K beta enzyme assay (HTRF); conditions: at a 1.1 μM concentration; read-out: PI3β Percent Inhibition
# T5 construct: His (N); host or cells: SF9 insect cells (baculovirus)
# Summary of the method: as §1
inhibition at 1 µM [1],inhibition at 1 µM [2],inhibition at 1.1 µM [3],inhibition at 1 µM [4],inhibition at 1.1 µM [5],Structure (SMILES)
34.4%,88.8%,58%,51.8%,103%,N#Cc1c(N2CCOCC2)sc(C(=O)O)c1Cc1ccc(Br)cc1 [Compound 106]
62.4%,99.6%,44%,38.1%,100%,COc1ccc(Cc2c(C(=O)O)sc(N3CCOCC3)c2C#N)cc1Cl [Compound 108]
24%,35.4%,6%,3.9%,76%,O=C(O)c1sc(N2CCOCC2)nc1Cc1ccc(OC(F)(F)F)cc1 [Compound 109]
46.8%,60.5%,7%,6.9%,77%,O=C(O)c1sc(N2CCOCC2)nc1Cc1ccc(C(F)(F)F)cc1 [Compound 111]
37.8%,114%,95%,69%,110%,N#Cc1c(N2CCOCC2)sc(C(=O)O)c1Cc1ccc2ccccc2c1 [Compound 112]
18.1%,78.8%,25%,32.5%,100%,"N#Cc1c(N2CCOCC2)sc(C(=O)O)c1C(N)c1ccc(Cl)cc1 (stereo not drawn) [Compound 113, 3-[amino(4-chlorophenyl)methyl]-4-cyano-5-(morpholin-4-yl)thiophene-2-carboxylic acid hydrochloride]"
131%,113%,40%,56.9%,106%,O=C(O)c1sc(N2CCOCC2)nc1Cc1ccc(Cl)c(Cl)c1 [Compound 114]
39.7%,63%,45%,12%,97%,N#Cc1ccc(Cc2c(C(=O)O)sc(N3CCOCC3)c2C#N)cc1 [Compound 115]
54.2%,83%,46%,36.7%,98%,N#Cc1c(N2CCOCC2)sc(C(=O)O)c1Cc1ccc(Cl)cc1 [Compound 116]
28.6%,78.5%,48%,14.7%,94%,COc1ccc(Cc2c(C(=O)O)sc(N3CCOCC3)c2C#N)c(Cl)c1 [Compound 117]
68.2%,89.3%,28%,27.5%,104%,"O=C(O)c1sc(N2CCOCC2)nc1Cc1ccc(Cl)c(F)c1 [Compound 118, 4-(4-chloro-3-fluorobenzyl)-2-morpholin-4-yl-1,3-thiazole-5-carboxylic acid]"
19.5%,62.6%,9%,7.6%,88%,O=C(O)c1sc(N2CCOCC2)nc1Cc1ccc(F)cc1 [Compound 119]
38.3%,77%,18%,11%,97%,COc1ccc(Cc2nc(N3CCOCC3)sc2C(=O)O)c(Cl)c1 [Compound 120]
64.8%,77.3%,11%,7.3%,59%,"CC(c1ccc(Cl)cc1)c1nc(N2CCOCC2)sc1C(=O)O (stereo not drawn) [Compound 121, 4-[1-(4-chlorophenyl)ethyl]-2-(morpholin-4-yl)-1,3-thiazole-5-carboxylic acid]"
55.2%,96.2%,49%,49.6%,106%,COc1cc(Cc2c(C(=O)O)sc(N3CCOCC3)c2C#N)ccc1Cl [Compound 122]
45.1%,96.8%,64%,36.6%,105%,N#Cc1c(N2CCOCC2)sc(C(=O)O)c1Cc1ccc(Cl)cc1F [Compound 123]
78.8%,112%,79%,74.2%,109%,N#Cc1c(N2CCOCC2)sc(C(=O)O)c1Cc1ccc(Cl)c(Cl)c1 [Compound 124]
37.1%,85.1%,46%,25.9%,99%,COc1cc(Cl)ccc1Cc1c(C(=O)O)sc(N2CCOCC2)c1C#N [Compound 125]
44%,100%,42%,37.6%,103%,N#Cc1c(N2CCOCC2)sc(C(=O)O)c1Cc1c(F)cc(Cl)cc1F [Compound 126]
33.7%,100%,40%,55%,110%,COc1cc(Cc2c(C(=O)O)sc(N3CCOCC3)c2C#N)c(F)cc1Cl [Compound 127]
88.1%,114%,46%,63.4%,106%,O=C(O)c1sc(N2CCOCC2)nc1Cc1ccc2cc(F)ccc2c1 [Compound 128]
